{"source": "patent US4698300A", "about": "“Process and reagent for the determination of α-amylase” (Merck Patent Gesellschaft mit beschrankter Haftung, priority 1983, dated 1987)", "key": {"[1]": {"test": "pH dependency of the absorption", "assay_type": "physicochemical", "conditions": "reagent solution adjusted to pH 7.1, pH increased and decreased stepwise, FIG. 2, versus 4-nitrophenol", "description": "Determination of α-amylase, pH dependency of the absorption\nUnder the same conditions as in Example 1, there are measured the extinctions of two reagent solutions adjusted to a pH value of 7.1, one of which contains 2-chloro-4-nitrophenol, the other 4-nitrophenol."}, "α-amylase": {"tested_on": "α-amylase", "test": "determination of α-amylase, time-reaction curve with α-glucosidase and β-glucosidase, extinction at 405 nm", "assay_type": "biochemical", "conditions": "for extinction change per minute: substrate in α-amylase determination, FIG. 1, 405 nm, 30° C.", "description": "For the determination of α-amylase, the reagent solution of substrate, α-glucosidase, β-glucosidase, buffer and activation agent is mixed with the sample solution and the extinction recorded at 405 nm e.g. at 30° C. Typically, 0.2-3.0 ml of reagent is mixed with 1.0-50 μl of sample for ordinary α-amylase concentrations.\nDetermination of α-amylase\nA reagent composition is prepared which, per ml. of test volume, contains the following components: […]\n2-chloro-4-nitrophenyl-β,D-\nphosphate buffer (pH 6.8)\nsodium chloride 0.05 Mol/l.\ncarrying out of the test: 1 ml. reagent + 10 μl. sample"}, "[2]": {"conditions": "optimum pH conditions of the α-amylase determination (6.8-7.1); cited from earlier work"}}, "data": [{"compound": "O=[N+]([O-])c1ccc(O)c(Cl)c1", "note": "[2-chloro-4-nitrophenol]", "values": [{"measurement": "influence of change of the pH value on the extinction", "setting": "[1]", "result": "less strongly influenced by change of the pH value"}]}, {"compound": "O=[N+]([O-])c1ccc(O[C@H]2O[C@H](CO)[C@@H](O[C@H]3O[C@H](CO)[C@@H](O[C@H]4O[C@H](CO)[C@@H](O[C@H]5O[C@H](CO)[C@@H](O[C@H]6O[C@H](CO)[C@@H](O[C@H]7O[C@H](CO)[C@@H](O[C@H]8O[C@H](CO)[C@@H](O)[C@H](O)[C@H]8O)[C@H](O)[C@H]7O)[C@H](O)[C@H]6O)[C@H](O)[C@H]5O)[C@H](O)[C@H]4O)[C@H](O)[C@H]3O)[C@H](O)[C@H]2O)cc1", "note": "[4-nitrophenyl-α,D-maltoheptaoside, reference compound]", "values": [{"measurement": "extinction change per minute", "setting": "α-amylase", "result": 0.024}]}, {"compound": "O=[N+]([O-])c1ccc(O[C@@H]2O[C@H](CO)[C@@H](O[C@H]3O[C@H](CO)[C@@H](O[C@H]4O[C@H](CO)[C@@H](O[C@H]5O[C@H](CO)[C@@H](O[C@H]6O[C@H](CO)[C@@H](O[C@H]7O[C@H](CO)[C@@H](O[C@H]8O[C@H](CO)[C@@H](O)[C@H](O)[C@H]8O)[C@H](O)[C@H]7O)[C@H](O)[C@H]6O)[C@H](O)[C@H]5O)[C@H](O)[C@H]4O)[C@H](O)[C@H]3O)[C@H](O)[C@H]2O)c(Cl)c1", "note": "[2-chloro-4-nitrophenyl-β,D-maltoheptaoside]", "values": [{"measurement": "increase of the change of absorption (Δ E/min.)", "setting": "α-amylase; line I in comparison with line III (4-nitrophenyl-α,D-maltoheptaoside), FIG. 1, Example 1", "result": "~ 0.05"}, {"measurement": "factor of increase of extinction change per minute", "setting": "α-amylase; relative to 4-nitrophenyl-α,D-maltoheptaoside, FIG. 1", "result": 3}, {"measurement": "extinction change per minute", "setting": "α-amylase", "result": "above 0.075"}]}, {"compound": "O=[N+]([O-])c1ccc(O[C@H]2O[C@H](CO)[C@@H](O[C@H]3O[C@H](CO)[C@@H](O[C@H]4O[C@H](CO)[C@@H](O[C@H]5O[C@H](CO)[C@@H](O[C@H]6O[C@H](CO)[C@@H](O[C@H]7O[C@H](CO)[C@@H](O[C@H]8O[C@H](CO)[C@@H](O)[C@H](O)[C@H]8O)[C@H](O)[C@H]7O)[C@H](O)[C@H]6O)[C@H](O)[C@H]5O)[C@H](O)[C@H]4O)[C@H](O)[C@H]3O)[C@H](O)[C@H]2O)c(Cl)c1", "note": "[2-chloro-4-nitrophenyl-α,D-maltoheptaoside, reference compound]", "values": [{"measurement": "extinction change per minute", "setting": "α-amylase", "result": 0.036}]}, {"compound": "O=[N+]([O-])c1ccc(O)cc1", "note": "[p-nitrophenol]", "values": [{"measurement": "liberated p-nitrophenol present as colored phenolate anion", "setting": "[2]", "result": "about 50%"}]}]}
